Values belong to the molecule of their own block, whether it stands above or below them. Active and inactive are the calls of the source. The rule behind the calls is not given here.
Key:
[1] = target: Metabotropic glutamate receptor 6 (Homo sapiens) (UniProt O15303); experiment: Compound was evaluated for its agonist activity against mGluR6 in Chinese hamster ovary (CHO) cells at a concentration of 300 uM; format: functional, cell-based
[2] = target: Metabotropic glutamate receptor 6 (Homo sapiens) (UniProt O15303); experiment: Compound was evaluated for its agonist activity against mGluR6 in Chinese hamster ovary (CHO) cells; Inactive; format: functional, cell-based
[3] = species: Rattus norvegicus; experiment: Compound was evaluated for its antagonist activity and inhibition of forskolin-stimulated cAMP formation by L-AP4 (10 uM), in adult rat cortical slices; format: functional

Sequence of Metabotropic glutamate receptor 6 (Homo sapiens) (O15303 whole entry): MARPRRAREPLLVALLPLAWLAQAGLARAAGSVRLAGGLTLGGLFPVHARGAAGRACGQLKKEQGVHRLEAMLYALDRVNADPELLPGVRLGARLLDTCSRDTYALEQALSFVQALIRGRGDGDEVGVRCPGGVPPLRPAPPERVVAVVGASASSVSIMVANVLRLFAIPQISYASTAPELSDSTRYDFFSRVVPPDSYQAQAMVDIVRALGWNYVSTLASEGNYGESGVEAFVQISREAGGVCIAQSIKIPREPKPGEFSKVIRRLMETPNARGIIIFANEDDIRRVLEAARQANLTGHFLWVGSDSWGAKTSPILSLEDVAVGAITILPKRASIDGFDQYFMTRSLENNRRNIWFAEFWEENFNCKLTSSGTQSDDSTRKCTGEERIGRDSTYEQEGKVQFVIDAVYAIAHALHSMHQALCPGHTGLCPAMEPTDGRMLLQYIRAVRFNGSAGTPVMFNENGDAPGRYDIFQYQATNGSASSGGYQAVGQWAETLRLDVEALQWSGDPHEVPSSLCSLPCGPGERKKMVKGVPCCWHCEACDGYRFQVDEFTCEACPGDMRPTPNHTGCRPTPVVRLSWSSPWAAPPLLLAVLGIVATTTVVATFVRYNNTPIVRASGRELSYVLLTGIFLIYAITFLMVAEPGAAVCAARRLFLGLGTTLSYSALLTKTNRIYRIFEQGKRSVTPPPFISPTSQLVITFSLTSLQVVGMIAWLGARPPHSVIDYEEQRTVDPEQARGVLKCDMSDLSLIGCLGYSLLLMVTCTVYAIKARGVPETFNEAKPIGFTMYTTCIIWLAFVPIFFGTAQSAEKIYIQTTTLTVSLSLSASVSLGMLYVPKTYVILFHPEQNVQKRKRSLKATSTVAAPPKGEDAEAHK

inhibition [1]: 27%
Compound: C[C@](N)(Cc1cccc(P(=O)(O)O)c1)C(=O)O

inhibition [2]: inactive
Compound: C[C@@]1(C(=O)O)Cc2cc(C(=O)O)ccc2CN1

IC50 [3]: 1 µM
Compound: C[C@](N)(Cc1cccc(C(=O)O)c1)C(=O)O

From ChEMBL document CHEMBL1131548, “Synthesis and biological evaluation of two analogues of (S)-alpha-methyl-3-carboxyphenylalanine” (Bioorg Med Chem Lett, 1998)
